Reference: US20080138280A1, “Composition and Methods For Inhibiting Cell Survival” (The Cleveland Clinic Foundation, priority 2003, published 2008)

Experiments:
IκB kinase (IKK) = IκB kinase (IKK) activity assay with GST-IκBα-(1-54) and [γ32P]ATP; format: cell-based, human; details: A375 pretreated with NO-Cbl
Description: FIG. 8 illustrates the assessment of IκB kinase (IKK) activity using recombinant GST-IκBα-(1-54) and [γ^32P]ATP as substrates. The phosphorylated GST fusion protein was detected by autoradiography. IKK activity was determined in A375 cells pretreated with NO-Cbl followed by Apo2L/TRAIL or TNF-α stimulation for 30 minutes and 15 minutes, respectively. […] Anti-β-actin antibody served as the irrelevant antibody with no phosphorylation of GST-IκBα-(1-54) observed.

normal fibroblasts = assay: Sulforhodamine B cell growth assay, normal cells; format: cell-based, human
Description: (§1) Cell Culture treatments. Cells were maintained in RPMI or DMEM (Mediatech, Herndon, Va.) containing 5% fetal bovine serum (Hyclone, Logan, Utah) and 1% Antibiotic-Antimycotic (GEBCO, Invitrogen Carlsbad, Calif.) as recommended per the American Type Culture Collection media protocol for each cell line. Cells were maintained in 5% CO2 at 37° C. in a humidified tissue culture incubator. Primary non-tumorigenic […] cell lines (DMN-1 and CMN-1), and human foreskin fibroblasts (HFF; CCF, Cleveland, Ohio) were cultured in DMEM-F12 medium supplemented with 10% FBS. Cells were confirmed as mycoplasma free.
(§2) Sulforhodamine B Cell Growth Assay. Cells were harvested with 0.5% trypsin/0.53 mM EDTA, washed with PBS and resuspended in media containing 10% FBS. Cells were plated in 96-well plates in 0.2-ml aliquots. Cells were allowed to adhere to the plate for 4 h and then NO-Cbl was added in different concentrations to the assay plate. A minimum of four were performed for each treatment. After 16 h, various chemotherapeutic agents including cytokines were added at different concentrations. Growth was monitored by the sulforhodamine B (SRB; Sigma Chemical, St. Louis, Mo.) colorimetric assay. After 36 h, the medium was removed, and the cells were fixed with 10% trichloroacetic acid and stained with SRB. Bound dye was eluted from the cells with 10 mM Tris-HCl (pH 10.5) and absorbance was measured at 570 nm using a Lab systems Multiskan RC 96-well plate reader (Lab Systems Multiscan RC, Thermo Lab Systems, Franklin, Mass.). To quantify the growth of the cells, the experimental absorbance values (Aexp) were compared with initial absorbance readings representing the starting cell numbers (Aini). To determine the starting cell number, an additional 96-well plate was seeded with cells and fixed at the beginning of the experiment. After 5 days growth, the untreated control cells and drug treated cells were fixed and stained with SRB. The absorbances derived from the initial plate and from the untreated cells at the end of the growth period (Afin) were defined as 0% and 100% growth, respectively. The percentage control growth (100%×[Aexp−Aini]/[Afin−Aini]) is expressed as a percentage of untreated controls.
(§3) Anti-tumor effects of NO-Cbl, Apo2L/TRAIL, and the combination iii vitro. NO-Cbl enhances the anti-cellular effects of Apo2L/TRAIL against malignant Apo2L/TRAIL-resistant cell lines. First the antiproliferative effects of three melanoma lines A375, WM9, and WM3211 (previously reported to be resistant to Apo2L/TRAIL) were measured. Although Apo2L/TRAIL was used as the chemotherapeutic agents, a wide range of anti-cancer drugs and techniques would be enhanced by the NO based cobalamin compounds due to their effective inhibition of the cell survival mechanism. Such other chemotherapeutic agents are tested in the following examples. […] The SRB antiproliferative assay, used by the National Cancer Institute (NCI) to evaluate new chemotherapeutic agents was used herein. Median effect analysis was used to analyze drug interactions between NO-Cbl and Apo2L/TRAIL. Cells were pre-treated with NO-Cbl for 16 h followed by Apo2L/TRAIL for 24 h.
(§4) The effects of nitrosylcobalamin (NO-Cbl), Apo2L/TRAIL, and the combination on the proliferation of melanoma cell lines A375, WM9, and WM3211 and normal cell lines CMN1, DMN1, and fibroblasts were observed. Cells were treated with NO-Cbl, Apo2L/TRAIL, or pre-treated with NO-Cbl followed by Apo2L/TRAIL for three days, and growth was measured by the colorimetric sulforhodamine B assay. Data points were generated to represent the mean of four replicates±standard error of the mean (SEM). Synergy between NO-Cbl and Apo2L/TRAIL was determined by median effect analysis, (combination index >1 indicates antagonism, =1 indicates additivity, and <1 indicates synergy). The combination index is represented in FIG. 1 and as the combination index observed at the specified concentrations. […]

[1] = tested on: DMN1 (normal melanocytes); assay: Sulforhodamine B cell growth assay, normal cells; format: cell-based, human
Description: as §1, §2, §3, §4

[2] = tested on: CMN1 (normal melanocytes); assay: Sulforhodamine B cell growth assay, normal cells; format: cell-based, human
Description: as §1, §2, §3, §4

[3] = tested on: Apo2L/TRAIL, DR4 and DR5 mRNAs, caspase-8 enzymatic activity; assay: Expression of Apo2L/TRAIL pathway components after NO-Cbl; format: cell-based; details: treatment with NO-Cbl
Excerpt: This endogenous production further sensitized cells to administration of exogenous Apo2L/TRAIL. […] The anti-tumor effects of IFN-β and NO-Cbl are synergistic in vitro and in vivo. Treatment with NO-Cbl increased the expression of Apo2L/TRAIL, DR4 and DR5 mRNAs, and caspase-8 enzymatic activity, indicating activation of the extrinsic apoptotic pathway.

[4] = tested on: human hematological and solid tumor cell lines; details: cited from earlier work
[5] = tested on: NF-κB-luciferase reporter in A375 cells; assay: Dual luciferase NF-κB reporter assay; format: cell-based, human
Description: Dual Luciferase NF-κB Reporter Assay. Please see FIG. 6. The NP-κB-luciferase (NF-κB-luc) reporter plasmid, containing a 2×NF-κB response element fused to the luciferase, has been previously characterized. Renilla luciferase (pRL-TK, Promega, Madison, Wis.) vector was used to normalize for transfection efficiency. A375 cells were transfected with 20 μg NF-κB-luc and 10 μg PRL-TK using Lipofectamine plus (Gibco BRL/Life Technologies, Invitrogen Carlsbad, Calif.). After transfection cells were allowed to recover overnight and were plated in 6 well plates. […] Cells were then harvested in 1× passive lysis buffer and luciferase activity was measured according to the manufacturer's protocol (Promega, Madison, Wis.) using a Wallac 1420 multilabel counter (Perkin Elmer, Gaithersburg, Md.). The fold induction of NF-κB-luciferase for each treatment was based on untreated values normalized to the fold induction of pRL-TK reporter values. The assays were performed in triplicate.
Transient transfection assays were performed to assess NF-κB transcriptional activity. A375 cells were co-transfected with a NF-κB-luciferase reporter (NF-κB-luc) and Renilla luciferase (to assess transfection efficiency). Cells were pre-treated with NO-Cbl (100 μM) for 16 h followed by treatment with Apo2L/TRAIL (100 ng/ml) or TNF-α (10 ng/ml) for 4 hours.

nitrosylcobalamin [NO-Cbl]
IKK activity stimulated with Apo2L/TRAIL (IκB kinase (IKK); Apo2L/TRAIL 30 minutes): inhibited | IKK activity stimulated with TNF-α (IκB kinase (IKK); TNF-α 15 minutes): inhibited | antiproliferative effect on normal cells (normal fibroblasts): completely resistant | antiproliferative effect on normal cells [1]: completely resistant | antiproliferative effect on normal cells [2]: completely resistant | expression of Apo2L/TRAIL, DR4 and DR5 mRNAs, and caspase-8 enzymatic activity [3]: increased | ID50 lower in tumor cell lines compared to benign cells (fibroblasts and endothelial cells) [4]: 5-100 fold | inhibition of NF-κB activity in response to Apo2L/TRAIL ([5]; NO-Cbl 100 μM 16 h followed by Apo2L/TRAIL 100 ng/ml 4 hours): 34% | inhibition of NF-κB activity in response to TNF-α ([5]; NO-Cbl 100 μM 16 h followed by TNF-α 10 ng/ml 4 hours): 51%
